Laboratory results from patent publication US9005677B2, “Autophagy enhancer for treatment of neurodegenerative diseases” (Macau University of Science and Technology, priority 2013, dated 2015).

Key:
[1] = molecular target: T1, α-synuclein oligomerization in HeLa cells transfected with GNS and SGC (Homo sapiens, UniProt P37840); experiment: Bimolecular fluorescence complementation (BiFC) assay; assay type: cell-based; details: 24 hours at 30° C.
T1 construct: expressed in transfected cells; host or cells: HeLa cells
Description: Bimolecular fluorescence complementation (BiFC) assay. In brief, HeLa cells transfected with both GFP-N terminal-α-synuclein (GNS) and α-synuclein-GFP-C terminal (SGC) plasmids were incubated at 37° C. for 4 hours. Then, the transfected cells were incubated with different concentrations of Radix Polygalae ethanol extract or Onjisaponin B for a further 24 hours at 30° C.. Fluorescent signals upon complete GFP fluorophore reconstitution in cells were then detected by flow analysis.
Results: By using the bimolecular fluorescence complementation (BiFC) assay, the oligomerization of α-synuclein in living cells can be directly quantified. In brief, α-synuclein proteins fused with two different non-fluorescent GFP terminal fragments, (i) GFP-N terminal-α-synuclein (GNS) or (ii) α-synuclein-GFP-C terminal (SGC) respectively were used. Upon oligomerization of α-synuclein, the two non-fluorescent fractions of GFP will therefore reconstitute the complete GFP fluorophore and transmit GFP fluorescent signal within cells. This signal in turn can be quantified by flow cytometry analysis.

[2] = system: LC3-II conversion in PC12 cells; experiment: Western blot of autophagic marker protein LC3 conversion; assay type: cell-based
Description: Detection of autophagic marker protein LC3 conversion. After drug treatments with or without autophagy inhibitor ([…] E64D and pepstain A), cells were harvested and lysed in RIPA buffer (Cell Signaling Technologies Inc., Beverly, Mass.). The cell lysates were then resolved by SDS-PAGE. After electrophoresis, the proteins from SDS-PAGE were transferred to nitrocellulose membrane which was then blocked with 5% non-fat dried milk for 60 minutes. The membrane was then incubated with LC3 primary antibodies (1:1000) in TBST overnight at 4° C. After that, the membrane was further incubated with HRP-conjugated secondary antibodies for 60 minutes. Finally, protein bands were visualized by using the ECL Western Blotting Detection Reagents (Invitrogen, Paisley, Scotland, UK).

[3] = system: PC-12 cells transfected with mutant huntingtin EGFP-HDQ74; experiment: MTT viability of PC-12 cells expressing mutant huntingtin; assay type: cell-based, rat; details: 25 μmol/L, 2 days
Description: Cell cytotoxicity assay: Cytotoxicity was assessed using the 344,5-dimethylthiazol-2-yl)-2,5-diphenyltetrazolium bromide assay as described previously. PC-12 cells were transfected with or without mutant huntingtin EGFP-HDQ74 for 24 h. The PC-12 cells were then seeded on 96-well plates with 4000 cells per well and then exposed to the indicated concentrations of Onjisaponin B (25 μmol/L) for 2 days. Subsequently, 10 μL of MTT reagents was added to each well and incubated at 37° C. for 4 hours, followed by the addition of 100 μL solubilization buffer (10% SDS in 0.01 mol/L HCl) and overnight incubation. Absorbance at 585 nm was determined from each well on the next day. The percentage of cell viability was calculated using the following formula: Cell viability (%)=Cells number treated/Cells number DMSO control×100. Data was obtained from three independent experiments.

[4] = system: PC-12 cells; experiment: Cell viability by crystal violet staining; assay type: cell-based, rat; details: 24 hours
Description: Cell culture and cytotoxicity assay: The test compound of Onjisaponin B was dissolved in DMSO at a final concentration of 100 mmol/L and stored at −20° C. Cytotoxicity was assessed using the 3-(4,5-dimethylthiazol-2-yl) -2,5-diphenyltetrazolium bromide assay as described previously. PC-12, 4000 cells were seeded on 96-well plates per well. After overnight pre-incubation, the cells were exposed to different concentrations of Onjisaponin B (0.039-100 μmol/L) for 2 days. Subsequently, 10 μL of MTT reagents was added to each well and incubated at 37° C. for 4 hours followed by the addition of 100 μL solubilization buffer (10% SDS in 0.01 mol/L HCl) and overnight incubation. Absorbance at 585 nm was determined from each well the next day. For cell viability assay measured by crystal violet staining, PC-12 cells were incubated in 35 mm disc followed by the addition of Onjisaponin B at the indicated concentrations for 24 hours. The cells were then incubated with crystal violet for 10 minutes followed by a ddH2O wash. […] Cell viability was quantified by dissolving the stained cells in 10% acetic acid (200 μL/well). The colorimetric reading of the solute mixture was then determined by spectrophotometer at OD 560 nm The percentage of cell viability was calculated using the following formula: Cell viability (%)=Cells number treated/Cells number DMSO control×100. […]

[5] = system: EGFP-HDQ74 transfected Atg7 wild-type mouse embryonic fibroblasts; experiment: Mutant huntingtin aggregates and LC3 conversion in Atg7 wild-type MEFs; assay type: cell-based
Description: Quantification of mutant huntingtin aggregates in PC12, Atg7 wild type and deficient MEFs. In brief, both EGFP-HDQ74 transfected PC12, Atg7 wild-type and deficient mouse embryonic fibroblasts (MEFs) grown on coverslips in a 6-well plate were treated with indicated concentrations of Onjisaponin B. The cells were then fixed in 4% paraformaldehyde for 20 minutes at room temperature and then rinsed with PBS. Slides were mounted with FluorSave™ mounting media (Calbiochem, San Diego, Calif.) and examined by fluorescence microscopy. The number of cells with GFP-aggregates formation was examined under the Nikon ECLIPSE 80i microscope. Representative images were captured with CCD digital camera Spot RT3™ (Diagnostic Instruments, Inc., Melville, N.Y.). To quantify the clearance of mutant huntingtin, the percentage of cells with GFP-aggregates was calculated by counting the number of the cells with punctate GFP-LC3 fluorescence in GFP-positive cells. A minimum of 150 cells from 3 randomly selected fields was scored.
Detection of autophagic marker protein LC3 conversion and HTT 74 mutant aggregates. After drug treatments for Atg7 wild type and deficient MEFs, cells were harvested and lysed in RIPA buffer (Cell Signaling Technologies Inc., Beverly, Mass.). The cell lysates were then resolved by SDS-PAGE. […]

SMILES: COc1ccc(/C=C/C(=O)O[C@@H]2[C@H](O[C@@H]3O[C@@H](C)[C@H](O)[C@@H](O)[C@H]3O)[C@@H](O[C@@H]3O[C@@H](C)[C@H](O[C@@H]4OC[C@@H](O[C@@H]5O[C@H](CO)[C@H](O)[C@H](O)[C@H]5O)[C@H](O)[C@H]4O)[C@@H](O)[C@H]3O)[C@H](OC(=O)[C@]34CCC(C)(C)C[C@H]3C3=CC[C@@H]5[C@@]6(C)C[C@H](O)[C@H](O[C@@H]7O[C@H](CO)[C@@H](O)[C@H](O)[C@H]7O)[C@@](C)(C(=O)O)[C@@H]6CC[C@@]5(C)[C@]3(CO)CC4)O[C@@H]2C)cc1 [Onjisaponin B]
- Oligomerization of α-synuclein (GFP fluorescent signal, flow analysis) [1]: inhibit the oligomerization of α-synuclein
- LC3-II conversion (western blot) [2]: increase of LC3-II conversion
- Rate of LC3-II formation in the presence of protease inhibitors (autophagic flux) ([2]; with 10 µg/mL E64D and pepstain A): increased the rate of LC3-II formation
- Toxicity in PC-12 cells expressing mutant huntingtin (cell viability, MTT) [3]: reduced toxicity
- Morphological damage in PC12 cells (crystal violet assay) [4]: no significant morphological damage
- Clearance of EGFP-HDQ74 inclusions in autophagy-wild type cells [5]: enhanced the clearance of EGFP-HDQ74 inclusions
- LC3II formation in wild type Atg7 cells transfected with EGFP-HDQ74 ([5]; western blot): LC3II formation in wild type Atg7 cells
